Source: patent publication US10517952B2, “Nucleophile-triggered degradable materials and methods of making and using the same” (GEORGIA TECH RESEARCH CORPORATION, priority 2014, dated 2019)

Columns and labels:
[1] = Release of entrained cargo from PEG-OND hydrogels; type: physicochemical; conditions: pH 7.4 PBS, 37° C.; first-order fit
Method: Finally, the diffusion of entrained, rather than covalently anchored, cargos of different sizes out of OND hydrogels of differing stabilities was measured. This was done with a small molecule (carboxyfluorescein), a globular protein (fluorescein-labeled bovine serum albumin, BSA), and a 30-nm protein nanoparticle (fluorescein-labeled bacteriophage Qb virus-like particle). The first and last species have no available thiol groups; the second was reacted with N-ethylmaleimide before gelation to cap cysteine-34 and avoid tethering of the protein cargo to the hydrogel network. Hydrogels derived from 4-PEG-SH and 7a, 7b, or 8 were formed in the presence of each cargo; the speed of this reaction made it highly unlikely that OND connectors were addressed by protein amine groups under these conditions.
Three sets of three 60 μL gels were prepared using linkers 7a, 7b, and 8, respectively. The first set contained 1 mM small molecule probe 5/6-carboxyfluorescein, while the second and third sets contained FITC labeled BSA and Qβ virus-like particle, respectively. The gels were allowed to set for 30 minutes at room temperature before dilution with 3 mL of pH 7.4 100 mM phosphate buffered saline. The samples were incubated at 37° C. and the increase in absorbance of the supernatant at 497 nm was monitored. The fraction of released dye was plotted against incubation time. Least-squares kinetic fitting to a first-order rate law was performed for release profiles obtained for carboxyfluorescein cargo, and for the release of BSA from non-degradable PEG-EONB (8) hydrogel (Solver plug-in, Microsoft Excel).

[2] = Degradation of neat PEG-OND hydrogels (inversion test, time-lapse photography); type: physicochemical; conditions: neat gel; for Time gel is stable / collapses (inversion test): no swelling buffer
Method: Degradation rates of the PEG-OND hydrogels in the absence of swelling buffer varied with temperature and with the identity of OND used to form the gel. […] In comparison, gels formed using 7b were stable for more than 60 hours at 37° C., and approximately 13 hours at 50° C.
Three 500 μL 3.5 wt % hydrogels were formed with bis-ONDs 7a and 7b, and bis-EONB 8, respectively, in 2 mL vials with caps. The sealed vials were incubated in an oil bath maintained at 50° C. The samples were periodically removed from heat and the vials were inverted to determine if the gel was still intact, or whether the sample was a free-flowing liquid, as described in the main text. The gel formed between 4-PEG-SH and bis-EONB 8 in FIG. 9 was removed from heat after 5 days, and stored at room temperature in a sealed vial. The hydrogel is still intact at the time of writing (5 days at 50° C. followed by >1 year at room temperature). The inversion test was routinely used in all stability experiments to verify hydrogel integrity during incubation.
In order to observe reverse gelation upon prolonged heating of neat hydrogels, time-lapse photography was carried out. Briefly, 600 μL hydrogels comprised of 3.5 wt % 4-PEG-SH+bis-OND/EONB (7a, 7b, and 8, respectively) in pH 7.4 100 mM potassium phosphate buffer containing 7% DMSO (v/v) were formed in glass culture tubes and allowed to set for 15 minutes. A glass bead (˜160 mg, stained with blue Sharpie-brand marker to improve visibility) was placed carefully on top of each gel, and a drop of silicon oil was added to prevent evaporation at the surface of the gels. The tubes were sealed with lab parafilm and incubated in a 50° C. oil bath. Photos were collected every 2 minutes for ˜22 hours using Chronolapse software (v.1.0.4) and a Creative Labs webcam. Photographs were compiled in chronological order using iMovie software, with each photo occupying one 0.1 s frame. The resulting video is available as S1 Video, mentioned above.

[3] = Equilibrium swelling, gel fraction and Mc (Flory-Rehner) of PEG-OND hydrogels; type: physicochemical; conditions: for Mc (apparent molecular weight between elastic crosslinks): calculated with the Flory-Rehner equation from swelling results; for Gel Fraction: mass of dry residue post-swelling/input mass of OND and 4-PEG-SH; for Equilibrium Swelling Ratio: mass post-swelling/mass pre-swelling, deionized water, 4° C., 24 hours, n = 3 gels
Method: The swelling of the PEG-OND hydrogels in deionized water was measured at 4° C. to prevent significant fragmentation during the experiment. […] An independent experiment measuring soluble fraction thiol content yielded results complementing those obtained gravimetrically (Table S3, and related discussion below). With the knowledge that small molecules can readily permeate swollen PEG-OND hydrogels (see below), detecting and modifying residual thiols in gels prepared from divalent linkers 7a and 8 by swelling in the presence of a fluorogenic OND derivative was attempted (FIG. 15, and related discussion below).
200 μL gels were prepared in pH 7.4 100 mM phosphate buffered saline containing 7% DMSO with 3.5 wt % 4-PEG-SH and the corresponding bis-, tris-, and tetra-ONDs to provide a 1:1 thiol to electrophile ratio, and allowed to cure for 20 minutes at room temperature. The mass of the gels after curing was recorded (Meq) before suspending in 5.5 mL of water. The hydrogels were stored at 4° C. during swelling to prevent significant degradation of the network during the experiment. The increase in mass of the gels was monitored periodically by decanting and blotting the gel gently with a kimwipe to remove excess water before weighing. After 24 hours swelling, when swelling had stabilized, the mass of the gel was recorded (Meq). The equilibrium mass swelling ratio was then determined using the following relationship:
After weighing equilibrium-swelled gels to determine equilibrium mass swelling ratio, the gels were freeze-dried and the residual mass was weighed (Mres). It is expected that buffer salts present in the sample when it was formed were removed by the multiple changes of swelling solvent (pure water). The mass of the remaining residue was compared to the input mass (Min) of 4-PEG-SH macromer and OND-based linker. The ratio of the residual mass and the input mass provides the fraction of material by mass incorporated into the hydrogel network (gel fraction), as shown in the following equation: […]
The apparent molecular weight between elastically-productive crosslinks (Mc) was determined from equilibrium swelling data, collected as described in section VII.1 and applying a modified form of the Flory-Rehner equation for networks formed under dilute conditions:
[formula] where Mn is the number average molecular weight for the polymeric macromer (10,000 g/mol), v is the specific volume of the polymer ([…] for PEG) V1 is the molar volume of solvent used for swelling ([…] for water), χ is the polymer-interaction parameter (0.43 for PEG-H2O and assumed constant for the described experiments). V2, and V2, are the volume fraction of polymer in the equilibrium swollen gel and the relaxed gel after curing, respectively, and are calculated as follows:
[formula] where qw is the weight swelling ratio after equilibrium swelling, qF is the weight swelling ratio after curing, ρp is the density of the polymer (1.12 g/cm^3 for PEG), ρwater=ρcure solvent is the density of swelling solvent and solvent during gel formation (1.00 g/cm^3 for water). The weight swelling ratios qw and qF are determined from data gathered in equilibrium swelling experiments using the following relationships:
[formula] where ms is the mass of the gel after equilibrium swelling, mc is the mass of the gel after curing, and md is the mass of the dried gel, or input mass of polymer and crosslinkers.
Using the formulae above, masses of hydrogel samples recorded after equilibrium swelling, curing, and drying were applied to estimate the apparent molecular weight between crosslinks, which are summarized in Table 1 of the main text. The experimentally observed Mc values for gels formed using divalent OND linkers was lower than theoretical ideal value Mc,ideal. This can be explained by the fact that the Mc,ideal values calculated for these gels (entries 1-5 of Table S1) are greater than the entanglement molecular weight for polyethylene glycol (˜4,400 g/mol). […]

[4] = Calculation of hydrogel mesh size from equilibrium swelling data; type: physicochemical; conditions: for Calculated mesh size: equilibrium-swollen gels
Method: Using the calculated molecular weight between crosslinks, Mc, and the method previously described by Canal and Peppas, the hydrogel mesh size was calculated. First, the root-mean-square end-to-end distance of the polymer chains in the network, (r0^2)^1/2, was calculated as follows: (r0^2)^1/2=lCn^1/2n^1/2 (Equation S10) where l is the average bond length in the polymer (0.146 nm for PEG) and Cn is the characteristic ratio of the polymer (4.0 for PEG). The average number of bonds between crosslinks, n is calculated using the following equation:
[formula] where Mc is the average molecular weight between crosslinks, calculated as described in the previous section, and Mr is the molecular weight of the repeating unit for the PEG macromer (44 g/mol). Finally, the mesh size, ξ, is calculated using the following relationship: ξ=v2,s^−1/3(r0^2)^1/2 (Equation S12) where v2, is the partial volume of polymer in the equilibrium swollen hydrogel, and is calculated using the experimentally determined equilibrium weight swelling ratios.

Compound	kdiffusion of entrained cargo out of PEG-OND hydrogels [1] [s⁻¹]	Gel integrity on extended heating (inversion test) ([2]; 50° C.)	Gel stability by time-lapse photography, gel supporting a glass bead ([2]; heating (50° C.))	Time gel is stable / collapses (inversion test) ([2]; 37° C.)	Time gel is stable / collapses (inversion test) ([2]; 50° C.)	Mc (apparent molecular weight between elastic crosslinks) [3] [g/mol]	Gel Fraction [3]	Equilibrium Swelling Ratio [3]	Average mesh size ([4]; average for equilibrium swelled hydrogels from linkers 7a, 7b and 8) [nm]	Calculated mesh size [4] [nm]	melting point [°C]
5/6-carboxyfluorescein [reference compound]	0.000183 ± 8.3e-06										
CCOC(=O)C1=C(C(F)(F)F)C2C=CC1(CNC(=O)CCCC(=O)NCC13C=CC(O1)C(C(F)(F)F)=C3C(=O)OCC)O2 [Linker 7b, Diethyl 1,1′-((glutaroylbis(azanediyl))bis(methylene))bis(3-(trifluoromethyl)-7-oxabicyclo[2.2.1]hepta-2,5-diene-2-carboxylate)]		collapsed	more stable than those made with 7a	more than 60 hours	approximately 13 hours	3698 ± 16	0.96 ± 0.02	1.40 ± 0.02	14.0±1.0	13.1 ± 0.1	166 to 169
CCOC(=O)C1=C(C(F)(F)F)C2C=CC1(CNC(=O)CCCC(=O)NCC13C=CC(O1)C(C(=O)OC)=C3C(=O)OC)O2 (centres unmarked) [Linker 10, Dimethyl 1-((5-(((2-(ethoxycarbonyl)-3-(trifluoromethyl)-7-oxabicyclo[2.2.1]hepta-2,5-dien-1-yl)methyl)amino)-5-oxopentanamido)methyl)-7-oxabicyclo[2.2.1]hepta-2,5-diene-2,3-dicarboxylate]						4112 ± 94	0.98 ± 0.04	1.87 ± 0.12		15.1 ± 1.3	93 to 97
Bovine serum albumin: globular protein cargo, fluorescein-labeled bovine serum albumin	1.4e-05 ± 2.8e-06										
